Legend:
[1] = clinical use; cited from earlier work
sarcoma cell line KP1619 = assay: Annexin V flow cytometry apoptosis assay, 1Gy 80kVp x-ray; settings: psoralen, phosphor and x-ray present
B16 cancer cells = assay: Clonogenic cell kill, visible phosphor mixtures under x-ray with and without psoralen (AMT); type: cell-based
From the text: Accordingly, combinations of more than two “visible” phosphors can be used in this invention. Discussed below are x-ray settings and mass ratios for clonogenic cell kill experiments. F1 refers to the insertion of an aluminum filter into the x-ray beam to act as a filter.
FIGS. 34A and 34B show cell kill comparisons (shown here as the number of surviving colonies) between B16 cancer cells treated with and without psoralen (i.e., AMT) with different phosphor mixtures, but otherwise being x-ray stimulated and containing the multiple phosphor combinations noted above. On these drawings, LDLE=low xRT dose, low energy; HDHE=high xRT dose, high energy.
On these drawings, LDLE=low xRT dose, low energy; HDHE=high xRT dose, high energy.

sarcoma cell line KP1408 = assay: Annexin V flow cytometry apoptosis assay, 1Gy 80kVp x-ray; settings: psoralen, phosphor and x-ray present
tumor = assay: Animal study, Rodent Syngeneic Model, tumor growth delay; type: in vivo, BALB/c female mice; settings: 50-100 uL intra-tumoral injection three times per week, 100 ug phosphor combination and 5 uM psoralen (AMT), X-Ray 75kVp, 30 mA, 3 min; repeated study same result
Protocol: A phosphor system containing the following phosphor combination: LaPO4:Ce^3+, Tb^3+, 3Ca3(PO4)2.Ca(Fl, Cl)2:Sb^3+, Mn^2+, ZrO6-: Pr, Si, CaSiO3:Mn, Pb was used in an animal study based on a Rodent Syngeneic Model. In this animal study, a 50-100 uL intra-tumoral injection three times per week using 100 ug phosphor and 5 uM psoralen (AMT) and exposed to X-Ray dose of 75kVp using 30 mA for a duration of 3 min. The groups of mice in this study consisted of eight BALB/c female mice.

cells = cells kept in the dark compared to those exposed to light; cited from earlier work

Structure (SMILES): Oc1cccc(-c2c3nc(c(-c4cccc(O)c4)c4ccc([nH]4)c(-c4cccc(O)c4)c4nc(c(-c5cccc(O)c5)c5ccc2[nH]5)CC4)C=C3)c1 [Foscan, Tetra (m-hydroxyphenyl) chlorin]
- duration of skin photosensitivity [1]: approximately 2 weeks

Structure (SMILES): O=c1ccc2cc3ccoc3cc2o1 [psoralen]
- apoptosis (sarcoma cell line KP1619): high apoptosis
- cell kill with versus without psoralen (B16 cancer cells; higher kVp x-ray conditions, FIGS. 35A and 35B): does not show an increased kill
- apoptosis (sarcoma cell line KP1408): high apoptosis

Structure (SMILES): Cc1oc2c(C)c3oc(=O)cc(C)c3cc2c1CN [AMT]
- tumor growth versus saline treated group (tumor): tumor growth delay
- cell kill (surviving colonies) with versus without psoralen (B16 cancer cells; Red/Yellow/Green and Flamingo/Yellow/Green phosphor mixtures, x-ray stimulated, FIGS. 34A and 34B): improved cell kill
- cell kill with versus without psoralen (B16 cancer cells; flamingo, yellow, green FYG phosphor combination, FIG. 36): pronounced cell kill

Structure (SMILES): NCCN.[Cl][Pt]([Cl])([I])[I] [[PtCl2I2(en)]]
- cytotoxicity, dark compared to light (cells): no difference in cytotoxicity
